# Reference: patent US12416052B2, “Capturing, concentrating, and detecting microbes in a sample using magnetic ionic liquids and recombinase polymerase amplification” (priority 2019, dated 2025)
# Tests used:
# Salmonella typhimurium [1] = settings: thermal (120° C.-150° C.) disintegration; cited from earlier work
# E. coli = settings: thermal (120° C.-150° C.) disintegration; cited from earlier work
# Density of MIL = assay type: physicochemical
# [2] = system: Salmonella enterica subsp. enterica ser. Typhimurium ATCC 14028; assay type: cell-based; settings: Example 2; 2×T, 1×NaCl back-extraction medium
# Description: A universal schematic for MIL-based cell extraction is depicted in FIG. 7B. A 1 mL volume of diluted cell suspension was added to a flat-bottomed 4-mL screw cap glass vial. Fifteen microliters of either the Ni(II) or Dy(III) MIL was added and dispersed into microdroplets by vortex agitation for 30 s. The aqueous phase was decanted following dispersive extraction, and the MIL was subjected to a brief wash step using 1 mL of nuclease-free water (Integrated DNA Technologies, Coralville, IA, USA) to ensure adequate removal of loosely or incidentally bound cells. After washing, release of viable cells from the MIL extraction phase was carried out using a “back-extraction” step accomplished through addition of 1 mL of an ionically-rich nutritive medium comprised of 20 g L^−1 tryptone and 10 g L^−1 NaCl, followed by a 120 s vortex step. After back-extraction, aliquots of the cell-enriched back-extraction medium were enumerated using the track dilution method using 100×100 mm square, gridded TSA, BSA, CA or VRBGA plates.
# Following back-extraction, aliquots of the cell-enriched back-extraction medium were serially diluted in 0.1% peptone water and a 10 μL aliquot of each dilution was applied to a separate lane on square plates containing an appropriate agar medium. The plates were then tilted at an approximately 80° angle for 15 min to allow the droplets to travel toward the opposite end of the plate. The plates were incubated for 24 h at 37° C. (TSA, VRBGA), for 48 h at 37° C. (BSA) or for 24 h at 37° C. (CA). Colonies were counted and colony forming units (CFU) were determined. The enrichment factor (EF) for MIL-based extraction was calculated using Equation 1, where CMIL represents the concentration of bacteria in suspension following extraction using the MIL and CS is the initial concentration of bacteria in the sample.
# Because culture-based methods depend on sample preparation steps that preserve bacterial viability, potential deleterious cytotoxic effects imparted by MIL extractants must be considered. To begin our further study of MIL-bacterial interactions, we selected S. typhimurium ATCC 14028 as a model gram-negative pathogen and the Ni(II) MIL as extractant.
# [3] = system: S. typhimurium ATCC 14028; assay: Exposure of cells and plating on non-selective (TSA) and selective (BSA) agar (viability, injury, toxicity); assay type: cell-based, Salmonella enterica
# Description: To examine whether exposure time to the Ni(II) MIL affected cell viability, MIL-based whole-cell extraction was performed using the Ni(II) MIL, and cell-enriched back-extraction media were enumerated at 0, 5, 10 and 15 min on both TSA and BSA. To evaluate toxicity of the [EMIM^+][SCN^−] IL, one milliliter of diluted S. typhimurium ATCC 14028 cell suspension was added to a 4-mL screw cap glass vial. A 5% (vol/vol) or 50% (vol/vol) aqueous solution of 1-ethyl-3-methylimidazolium thiocyanate (“[EMIM^+][SCN^−]”) (IoLiTec, Tuscaloosa, AL, USA) was added and mixed by vortexing for 30 s. Aliquots were enumerated at 0, 5, 10 and 15 min using TSA and BSA.
# One milliliter of diluted S. typhimurium ATCC 14028 cell suspension was added to a 4-mL screw cap glass vial. Fifteen microliters of either the Dy(III) MIL or 2-10 μL of 100 mM DyCh solution or 10 mg of the ammonium tetra(hexafluoroaceto)dysprosium salt (15) ([NH4^+][Dy(hfacac)4^−]) (“Dy(III) ammonium salt”) was added and dispersed by vortex agitation for 30 s. Aliquots of the Dy(III) MIL- or Dy(III) ammonium salt-exposed cell suspension were enumerated using square TSA or BSA plates (BD).
# Because culture-based methods depend on sample preparation steps that preserve bacterial viability, potential deleterious cytotoxic effects imparted by MIL extractants must be considered. To begin our further study of MIL-bacterial interactions, we selected S. typhimurium ATCC 14028 as a model gram-negative pathogen and the Ni(II) MIL as extractant. Briefly, a 1 mL aliquot of TSB was inoculated with 1×10^5 CFU mL^−1 of bacteria and spiked with 15 μL of the Ni(II) MIL, and the general schematic for MIL-based extraction and recovery followed as shown in FIG. 7B. After extraction, 10 μL aliquots of the back-extraction solution were enumerated at 0, 5, 10 and 15 min using TSA and BSA. Average CFU counts were compared to a standard that was not exposed to the Ni(II) MIL. […] To better understand the data in FIG. 8, statistical analyses of Ni(II) MIL capture precision and CFU count variation as a function of MIL exposure time were performed. Variation in MIL capture may stem from inherent randomness of MIL dispersion and coalescence behaviors.
# The effects of 5% or 50% (vol/vol) aqueous solutions of the [EMIM^+][SCN^−] IL on the viability of the cells were also evaluated. Average CFU counts were compared to a standard not exposed to [EMIM^+][SCN^−]. In our hands, when S. typhimurium was exposed to 50% (vol/vol) solutions of [EMIM^+][SCN^−], no recovery was observed on either TSA or BSA after 5 min of exposure.
# To gain further insight into this phenomenon, the effect of free elemental dysprosium was evaluated by subjecting the cells to 0.1 mM and 1.0 mM solutions of DyCl3. The cells were exposed to the metal salt solutions for 30 s and subsequently plated on selective and non-selective media.
# While the metal did show cytotoxicity, it cannot be completely responsible for the Dy(III) MIL's effect on the cells, as no flocculation was seen and growth was still observed. Since both the Ni(II) and the Dy(III) MILs contain identical cations ([P6,6,6,14^+]), the role of the anion structure was evaluated. The anion of the Dy(III) MIL contains one additional hexafluoroacetylacetonate ligand than the Ni(II) MIL (FIG. 7), making the coordination geometry of the two complexes different. To test the effects of the anion structure, cells were subjected to 10 mg of the Dy(III) ammonium salt. After a 30 second vortex, similar flocculation was observed as when the cells were exposed to the native Dy(III) MIL.
# Salmonella typhimurium [4] = settings: plated to a selective agar; cited from earlier work
molecule,measurement,setting,value
1-butyl-1-methylpyrrolidinium bis(trifluoromethylsulfonyl)imide [[BMPyr^+][Ntf2^−]],cell disruption,Salmonella typhimurium [1],completely disrupted
same,cell disruption,E. coli,completely disrupted
CCCCCCCCCCCCCC[P+](CCCCCC)(CCCCCC)CCCCCC.O=C([CH-]C(=O)C(F)(F)F)C(F)(F)F.O=C([CH-]C(=O)C(F)(F)F)C(F)(F)F.O=C([CH-]C(=O)C(F)(F)F)C(F)(F)F.[Co+2] [Co(II) MIL],density,Density of MIL,~1.3 g/mL
same,enrichment factors,[2],approximately 12
"CCCCCCCCCCCCCC[P+](CCCCCC)(CCCCCC)CCCCCC.O=C([CH-]C(=O)C(F)(F)F)C(F)(F)F.O=C([CH-]C(=O)C(F)(F)F)C(F)(F)F.O=C([CH-]C(=O)C(F)(F)F)C(F)(F)F.O=C([CH-]C(=O)C(F)(F)F)C(F)(F)F.[Dy+3] [Dy(III) MIL, [P6,6,6,14^+][Dy(III) (hfacac)4^−]]",flocculation and growth after plating,"[3]; 15 μL added to cell suspension, 30 s vortex",extensive flocculation and no growth after plating
"O=C([CH-]C(=O)C(F)(F)F)C(F)(F)F.O=C([CH-]C(=O)C(F)(F)F)C(F)(F)F.O=C([CH-]C(=O)C(F)(F)F)C(F)(F)F.O=C([CH-]C(=O)C(F)(F)F)C(F)(F)F.[Dy+3].[NH4+] [Dy(III) ammonium salt, ammonium tetra(hexafluoroaceto)dysprosium salt, reference compound]",growth on TSA or BSA,"[3]; 10 mg, 30 second vortex, 24 h incubation",no growth was seen on either TSA or BSA
"[Cl][Dy]([Cl])[Cl] [DyCl3, reference compound]",viable counts on TSA and BSA,"[3]; 0.1 mM and 1.0 mM solutions, 30 s exposure",substantially lower counts were observed on BSA than TSA
"CCn1cc[n+](C)c1.N#C[S-] [[EMIM^+][SCN^−], 1-ethyl-3-methylimidazolium thiocyanate, reference compound]",inoculated S. typhimurium recovered after IL-mediated matrix lysis,Salmonella typhimurium [4],34-45%
same,recovery on TSA or BSA,"[3]; 50% (vol/vol) solution, after 5 min of exposure",no recovery
same,recovery on TSA or BSA,"[3]; exposed as originally described for IL-based extraction from foods (Mester et al., 2010)",no recovery
